Results: ChEMBL document CHEMBL3885861, “Open TG-GATES”

Species: Rattus norvegicus
Test: Open TG-GATES - Regimen: Daily Repeat
Assay type: toxicity, organism-based, Sprague-Dawley
Design: regimen Daily Repeat, gender Male, age 6 weeks
Settings: in vivo, po, 3 mg/kg, […], route gavage, dose level Low; for KIDNEY_L / KIDNEY_R / KIDNEY_TOTAL: tissue Kidney; for LIVER: tissue Liver; for A/G / ALP / ALT / AST / BUN / CRE / Ca / Cl / DBIL / GLC / IP / K / LDH / Na / PL / RALB / TBIL / TC / TG / TP / gamma-GTP: tissue Plasma

CN(C)CCC(c1ccc(Cl)cc1)c1ccccn1 (stereo unspecified) [CHLORPHENIRAMINE]
Lym (tissue Blood, time 28 day): 77.4% | MCH (tissue Blood, time 28 day): 19 pg | MCHC (tissue Blood, time 28 day): 33.5% | MCV (tissue Blood, time 28 day): 56.8 fL | Mono (tissue Blood, time 28 day): 2.4% | Neu (tissue Blood, time 28 day): 18% | PT (tissue Blood, time 28 day): 14.5 s | Plat (tissue Blood, time 28 day): 107.8 x10_4/uL | RBC (tissue Blood, time 28 day): 819.6 x10_4/ul | Ret (tissue Blood, time 28 day): 2.4% | WBC (tissue Blood, time 28 day): 82.8 x10_2/uL | KIDNEY_L (time 7 day): 1.1 g | KIDNEY_R (time 7 day): 1.1 g | KIDNEY_TOTAL (time 7 day): 2.2 g | KIDNEY_L (time 14 day): 1.2 g | KIDNEY_R (time 14 day): 1.2 g | KIDNEY_TOTAL (time 14 day): 2.5 g | KIDNEY_L (time 28 day): 1.4 g | KIDNEY_R (time 28 day): 1.4 g | KIDNEY_TOTAL (time 28 day): 2.8 g | LIVER (time 7 day): 12.6 g | LIVER (time 14 day): 14.8 g | LIVER (time 28 day): 15.6 g | A/G (time 7 day): 0.8 | ALP (time 7 day): 1694.2 IU/L | ALT (time 7 day): 41.6 IU/L | AST (time 7 day): 68 IU/L | BUN (time 7 day): 15.6 mg/dL | CRE (time 7 day): 0.2 mg/dL | Ca (time 7 day): 11.4 mg/dL | Cl (time 7 day): 106.2 meq/L | DBIL (time 7 day): 0.014 mg/dL | GLC (time 7 day): 194 mg/dL | IP (time 7 day): 7.7 mg/dL | K (time 7 day): 4.2 meq/L | LDH (time 7 day): 93 IU/L | Na (time 7 day): 144 meq/L | PL (time 7 day): 159.8 mg/dL | RALB (time 7 day): 2.7 g/dL | TBIL (time 7 day): 0.032 mg/dL | TC (time 7 day): 77.8 mg/dL | TG (time 7 day): 135 mg/dL | TP (time 7 day): 6 g/dL | gamma-GTP (time 7 day): 1 IU/L | A/G (time 14 day): 0.8 | ALP (time 14 day): 1670 IU/L | ALT (time 14 day): 39.2 IU/L | AST (time 14 day): 64.2 IU/L | BUN (time 14 day): 16.4 mg/dL | CRE (time 14 day): 0.2 mg/dL | Ca (time 14 day): 11.1 mg/dL | Cl (time 14 day): 105.2 meq/L | DBIL (time 14 day): 0.02 mg/dL | GLC (time 14 day): 194 mg/dL | IP (time 14 day): 7.7 mg/dL | K (time 14 day): 4.1 meq/L | LDH (time 14 day): 103.6 IU/L | Na (time 14 day): 143.4 meq/L | PL (time 14 day): 160.8 mg/dL | RALB (time 14 day): 2.8 g/dL | TBIL (time 14 day): 0.034 mg/dL | TC (time 14 day): 77 mg/dL | TG (time 14 day): 153 mg/dL | TP (time 14 day): 6.1 g/dL | gamma-GTP (time 14 day): 1 IU/L | A/G (time 28 day): 0.8 | ALP (time 28 day): 1190.6 IU/L | ALT (time 28 day): 38.6 IU/L | AST (time 28 day): 63.8 IU/L | BUN (time 28 day): 17 mg/dL | CRE (time 28 day): 0.2 mg/dL | Ca (time 28 day): 10.6 mg/dL | Cl (time 28 day): 107.6 meq/L | DBIL (time 28 day): 0.014 mg/dL | GLC (time 28 day): 186.2 mg/dL | IP (time 28 day): 6.2 mg/dL | K (time 28 day): 4 meq/L | LDH (time 28 day): 70.4 IU/L | Na (time 28 day): 145 meq/L | PL (time 28 day): 156.2 mg/dL | RALB (time 28 day): 2.8 g/dL | TBIL (time 28 day): 0.028 mg/dL | TC (time 28 day): 75.2 mg/dL | TG (time 28 day): 148 mg/dL | TP (time 28 day): 6.4 g/dL | gamma-GTP (time 28 day): 0.8 IU/L
